Measurements as given in patent US20240100018A1, “COMPOUNDS FOR THE TREATMENT OF A DISEASE OR DISORDER, METHODS FOR IDENTIFYING SAID COMPOUNDS” (priority 2021, published 2024).
“Also recorded” adds a separate entry of the source. Where a name gives a salt, the structure may show the parent alone. Read-outs that look alike come from different tables or passages of the source.

Experiments:
[1] = tested on: HEK293T cells transfected with ACE2 and TMPRSS2, SARS-CoV-2 spike-mediated cell fusion; test: cells; type: cell-based, human
[2] = tested on: SARS-CoV-2 Isolate USA-WA1/2020; test: In vitro viral inhibition assay in Vero-E6 cells (spike immunofluorescence); type: cell-based
Vero-E6 cells [3] = test: Toxicity by reduced cell count in the viral inhibition assay; details: for host cell toxicity (reduced cell count): concentration not given
Covid-19 = details: in vivo; cited from earlier work
[4] = human, in vivo; cited from earlier work
[5] = tested on: Calu-3 lung cancer cells, SARS-CoV-2 spike-mediated cell fusion; type: cell-based, human
Vero-E6 cells [6] = tested on: Vero-E6 cells
[7] = summary call Active / Not Tested, cell line not given
[8] = HEK293 syncytia assay, dose-response
[9] = summary call Active / Not Tested

## CN(C)CCC(c1ccc(Br)cc1)c1ccccn1 (centres unmarked) [brompheniramine, Brompheniramine]
[1]
  inhibition of syncytia formation (cell fusion): impaired viral entry; also recorded: to a lesser extent, brompheniramine, showed dose-responsive inhibition of syncytia formation; also recorded: inhibited syncytia formation
[1]; [7]
  Syncytia Assay: Active
HEK293 cells; [8]
  cell loss / cytotoxicity (total GFP): did not mirror cell loss

## O=C1[C@H](CC[C@H](O)c2ccc(F)cc2)[C@@H](c2ccc(O)cc2)N1c1ccc(F)cc1 [ezetimibe, Ezetimibe]
[2]; 25 μM (highest concentration studied), Vero-E6
  reduction of spike protein-expressing populations: reduced spike protein-expressing populations only at the highest concentration studied
[2]; [9]
  Viral Entry Assay: Active
[1]
  activity in the cell fusion assay: inactive
  inhibition of syncytia formation (cell fusion): impaired viral entry; also recorded: had inhibitory activity in the cell fusion assay; also recorded: inhibited both viral infection and cell fusion
  potency in the cell fusion assay relative to the viral infection assay: lower potency in the cell fusion assay
[1]; [7]
  Syncytia Assay: Active
Vero-E6 cells [3]; 25 μM, Vero-E6
  cell numbers: reduction in cell numbers was also observed

## COCCCC/C(=N\OCCN)c1ccc(C(F)(F)F)cc1 [fluvoxamine]
Covid-19
  decrease of Covid-19 deaths: 90%

## CCCCCCc1ccc(O)cc1O [hexylresorcinol, Hexylresorcinol]
[1]; [7]
  Syncytia Assay: Active
HEK293 cells; [8]
  cell loss / cytotoxicity (total GFP): mirrored by cell loss

## CN(C)CCCN1c2ccccc2CCc2ccccc21 [imipramine, Imipramine hydrochloride]
[1]
  Syncytia Assay: Active
[1]; hydrochloride
  inhibition of syncytia formation (cell fusion): impaired viral entry; also recorded: inhibited syncytia formation

## C[C@]1(O)C[C@@H](c2nc(-c3ccc4ccc(-c5ccccc5)nc4c3)c3c(N)nccn32)C1 [linsitinib, Linsitinib]
[1]
  inhibition of syncytia formation (cell fusion): impaired viral entry; also recorded: particularly effective; also recorded: most potent agent; also recorded: dose-responsive inhibition of syncytia formation; also recorded: complete inhibition of cell fusion; also recorded: substantially reduced spike-protein-dependent syncytia formation
[1]; Homo sapiens, HEK-293T, cell fusion (syncytia) assay
  EC50: 25 µM
[1]; listed as Linsitinib
  inhibition of syncytia formation (cell fusion): highest inhibitory activity
[1]; listed as linisitinib
  inhibition of syncytia formation (cell fusion): highest inhibitory activity
[1]; [7]
  Syncytia Assay: Active
[4]
  Cmax: 5 to 10 µM

## N=C(N)c1ccc2cc(OC(=O)c3ccc(N=C(N)N)cc3)ccc2c1 [nafamostat]
[5]
  inhibition of syncytia formation (cell fusion): prevented syncytia formation
HEK293 cells; [8]
  cell loss / cytotoxicity (total GFP): did not mirror cell loss

## CC(=O)c1c(O)c(C)c(O)c(Cc2c(O)c3c(c(C(=O)/C=C/c4ccccc4)c2O)OC(C)(C)C=C3)c1O [rottlerin, Rottlerin]
[2]; […], concentration not stated, listed as Rottlerin
  antiviral activity / inhibition of SARS-CoV-2 infection in Vero-E6 cells: inhibited viral infection
[2]; [9]
  Viral Entry Assay: Active
Vero-E6 cells [3]; Vero-E6
  host cell toxicity (reduced cell count): dose-limiting toxicity
Vero-E6 cells [3]; Vero-E6, listed as R077
  host cell toxicity (reduced cell count): dose-limiting toxicity as evidenced by reduced cell count

## OCc1cc(C(O)CNCCCCCCOCCCCc2ccccc2)ccc1O (centres unmarked) [salmeterol, Salmeterol]
[2]
  Viral Entry Assay: Active
  antiviral activity / inhibition of SARS-CoV-2 infection in Vero-E6 cells: exhibited antiviral activities; also recorded: prevented viral infection; also recorded: particularly strong inhibitory activities; also recorded: particularly effective; also recorded: can block in vitro SARS-CoV-2 replication at clinically relevant concentrations
  antiviral effect on spike-expressing cell population: reduced the median of the spike-expressing population; also recorded: greater antiviral effect on the entire population
  spike-positive cells: ~14%
[1]
  Syncytia Assay: Active
  inhibition of syncytia formation (cell fusion): had inhibitory activity in the cell fusion assay and full and not borne out by syncytia formation experiments with either HEK293T or Calu-3 cells, except at high concentration
  potency in the cell fusion assay relative to the viral infection assay: at least two orders of magnitude less potent
[5]
  inhibition of syncytia formation (cell fusion): not borne out by syncytia formation experiments with either HEK293T or Calu-3 cells, except at high concentration
Vero-E6 cells [6]
  host cell toxicity (reduced cell count): without apparent host cell toxicity
HEK293 cells
  cell loss / cytotoxicity (total GFP): mirrored by cell loss

## Cc1cc(C)c(/C=C2\C(=O)Nc3ccccc32)[nH]1 [semaxanib, Semaxanib]
[1]; [7]
  Syncytia Assay: Active

## CO[C@H]1C[C@@H]2CC[C@@H](C)[C@@](O)(O2)C(=O)C(=O)N2CCCC[C@H]2C(=O)O[C@H]([C@H](C)C[C@@H]2CC[C@@H](OC(=O)C(C)(CO)CO)[C@H](OC)C2)CC(=O)[C@H](C)/C=C(\C)[C@@H](O)[C@@H](OC)C(=O)[C@H](C)C[C@H](C)/C=C/C=C/C=C/1C [temsirolimus, Temsirolimus]
[2]; […], concentration not stated
  antiviral activity / inhibition of SARS-CoV-2 infection in Vero-E6 cells: Qualitatively similar results to salmeterol
[2]; [9]
  Viral Entry Assay: Active

## CCC(=O)N1CCN(c2ccc(-n3c(=O)ccc4cnc5ccc(-c6cnc7ccccc7c6)cc5c43)cc2C(F)(F)F)CC1 [torin-1, Torin-1]
[2]; […], concentration not stated
  antiviral activity / inhibition of SARS-CoV-2 infection in Vero-E6 cells: Qualitatively similar results to salmeterol
[2]; [9]
  Viral Entry Assay: Active
Vero-E6 cells [6]
  host cell toxicity (reduced cell count): dose-limiting toxicity as evidenced by reduced cell count
Vero-E6 cells [3]; 100 nM
  toxicity: toxic

## Dec-RVKR-CMK
[1]; HEK293T acceptor cells with ACE2 and TMPRSS2, 1-2 h pretreatment, 4 h co-culture
  inhibition of syncytia formation (cell fusion): prevented syncytia formation; also recorded: similarly potent in both cell types; also recorded: dose-responsive inhibition of syncytia formation
[5]; Calu-3 acceptor cells, 1-2 h pretreatment, 4 h co-culture
  inhibition of syncytia formation (cell fusion): prevented syncytia formation; also recorded: seemingly larger maximal magnitude of inhibition
HEK293 cells; [8]
  cell loss / cytotoxicity (total GFP): did not mirror cell loss
